The results in this text go back to patent publication US8492559B2, “Substituted indole compounds” (Gruenenthal GmbH, priority 2009, dated 2013).

For this test, the target named is T1, B1R receptor of the rat (rB1R) (Rattus norvegicus, UniProt P97583).
T1 construct: expressed in transfected cells; host or cells: CHO K1 cells
T1 sequence (P97583 1-337): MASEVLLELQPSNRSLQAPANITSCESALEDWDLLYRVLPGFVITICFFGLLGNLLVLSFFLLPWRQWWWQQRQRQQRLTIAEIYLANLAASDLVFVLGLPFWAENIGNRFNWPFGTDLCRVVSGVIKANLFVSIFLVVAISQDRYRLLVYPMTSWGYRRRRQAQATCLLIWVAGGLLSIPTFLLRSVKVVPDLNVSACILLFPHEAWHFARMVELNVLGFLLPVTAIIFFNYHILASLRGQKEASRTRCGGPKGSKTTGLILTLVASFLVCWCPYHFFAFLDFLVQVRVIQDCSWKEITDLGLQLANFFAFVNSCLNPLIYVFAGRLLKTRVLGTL
The test is described as follows: Functional investigation on the bradykinin 1 receptor (B1R), FLIPR Ca2+ assay, rB1R cells. It counts as cell-based. Conditions: CHO-K1, 10 μM test substance; CHO K1 cells with rat B1R; agonist Des-Arg9 bradykinin; % of maximum achievable inhibition; read-out: B1R antagonism, rat [10 μM] % inhibition. The method, then:
The indication in % activation is based on the Ca^2+ signal after addition of Lys-Des-[…] bradykinin (0.5 nM) or Des-[…] bradykinin (100 nM). Antagonists lead to a suppression of the Ca^2+ influx following administration of the agonist. The % inhibition in comparison with the maximum achievable inhibition is indicated. […] According to this assay, the Ca^2+ inflow through the channel is quantified with the aid of a Ca^2+-sensitive dye (Fluo-4 type, Molecular Probes Europe BV, Leiden, Netherlands) in a fluorescent imaging plate reader (FLIPR, Molecular Devices, Sunnyvale, USA). […] For functional investigations these cells are plated-out onto black 96-well plates with a clear base (BD Biosciences, Heidelberg, Germany or Greiner, Frickenhausen, Germany) in a density of 20,000-35,000 cells/well. Overnight the cells are incubated at 37° C. and 5% CO2 in culture medium (hB1R cells: Ham's Nutrient Mixture F12, Gibco Invitrogen GmbH, Karlsruhe, Germany or DMEM, Sigma-Aldrich, Taufkirchen, Germany; rB1R cells: D-MEM/F12, Gibco Invitrogen, Karlsruhe, Germany) with 10 vol. % FBS (foetal bovine serum, Gibco Invitrogen GmbH, Karlsruhe, Germany or PAN Biotech GmbH, Aidenbach, Germany). On the following day the cells are loaded with 2.13 μM Fluo-4 (Molecular Probes Europe BV, Leiden, Netherlands) in HBSS buffer (Hank's buffered saline solution, Gibco Invitrogen GmbH, Karlsruhe, Germany) with 2.5 mM probenecid (Sigma-Aldrich, Taufkirchen, Germany) and 10 mM HEPES (Sigma-Aldrich, Taufkirchen, Germany) for 60 min at 37° C. […] Sigma-Aldrich, Taufkirchen, Germany), 5.6 mM glucose and 0.05% gelatine (Merck KGaA, Darmstadt, Germany) is added. After a further incubation of 20 minutes at room temperature, the plates are inserted into the FLIPR for Ca^2+ measurement. Alternatively they are washed with buffer A (15 mM HEPES, 80 mM NaCl, 5 mM KCl, 1.2 mM CaCl2, 0.7 mM MgSO4, 2 g/l glucose, 2.5 mM probenecid) and loaded with buffer A with added 2.5 μM Fluo-4 and 0.025% Pluronic F127 (Sigma-Aldrich, Taufkirchen, Germany). The cells are then washed twice with buffer A and incubated for 30 minutes with buffer A, which additionally contains 0.05% BSA and 0.05% gelatine, at room temperature and then used for Ca^2+ measurement in the FLIPR. The Ca^2+-dependent fluorescence is measured here before and after addition of substances (λex=488 nm, λem=540 nm). The quantification is performed by measuring the highest fluorescence intensity (FC, fluorescence counts) over time. The FLIPR protocol comprises two additions of substance. […] Lys-Des-[…] bradykinin>=50 nM; rB1R: […] Antagonists lead to a suppression of the Ca^2+ inflow. The % inhibition in comparison with the maximum achievable inhibition is calculated. The substances are added in varying concentrations in order to determine the IC50 value. Double or triple determinations (n=2 or n=3) are performed and these are repeated in at least one further independent experiment (N>=2).
In the case of `Cc1cc(S(=O)(=O)Nc2ccc3ccn(CCC(=O)N4CCC5(CC4)CCN(c4ccncc4)CC5)c3c2)c(C)cc1Cl` [G_CC-65, 4-Chloro-2,5-dimethyl-N-[1-[3-oxo-3-(3-pyridin-4-yl-3,9-diazaspiro[5.5]undecan-9-yl)-propyl]-1H-indol-6-yl]-benzenesulfonic acid amide], the inhibition – broadly, the drop in the measured response relative to a control, in per cent – at 10 µM was 53%. The value for `COc1cc(C)c(S(=O)(=O)Nc2cccc3ccn(CCC(=O)NC4CCC(c5ccccc5)(N5CCC5)CC4)c23)c(C)c1` (centres unmarked) [G_CC-50, N-[4-(Azetidin-1-yl)-4-phenyl-cyclohexyl]-3-[7-[[(4-methoxy-2,6-dimethyl-phenyl)sulfonyl]amino]-1H-indol-1-yl]-propionamide] was 62%; that for `COc1cc(C)c(S(=O)(=O)Nc2cccc3ccn(CC(=O)N4CC5CC4CN5Cc4ccncc4)c23)c(C)c1` (centres unmarked) [G_CC-34, 4-Methoxy-2,6-dimethyl-N-[1-[2-oxo-2-[2-(pyridin-4-yl-methyl)-2,5-diazabicyclo[2.2.1]heptan-5-yl]-ethyl]-1H-indol-7-yl]-benzenesulfonic acid amide] was 58%.

As to `COc1cc(C)c(S(=O)(=O)Nc2cccc3ccn(CC(=O)N4CCC(c5cccc(F)c5)(N5CCN(C)CC5)CC4)c23)c(C)c1` [G_CC-84, N-[1-[2-[4-(3-Fluorophenyl)-4-(4-methyl-piperazin-1-yl)-piperidin-1-yl]-2-oxo-ethyl]-1H-indol-7-yl]-4-methoxy-2,6-dimethyl-benzenesulfonic acid amide], the inhibition at 10 µM was determined as 102%. The value for `COc1cc(C)c(S(=O)(=O)Nc2cccc3ccn(CC(=O)N4CCC5(CCN(Cc6ccccc6)C5)C4)c23)c(C)c1` (centres unmarked) [G_CC-13, N-[1-[2-(3-Benzyl-3,7-diazaspiro[4.4]nonan-7-yl)-2-oxo-ethyl]-1H-indol-7-yl]-4-methoxy-2,6-dimethyl-benzenesulfonic acid amide] was 58%. For `Cc1cc(S(=O)(=O)Nc2cccc3ccn(CCC(=O)NCCN4CCC(c5cccs5)(N(C)C)CC4)c23)c(C)cc1Cl` [G_CC-73, 3-[7-[[(4-Chloro-2,5-dimethyl-phenyl)sulfonyl]amino]-1H-indol-1-yl]-N-[2-(4-dimethylamino-4-thiophen-2-yl-piperidin-1-yl)-ethyl]-propionamide], the inhibition at 10 µM came out at 55%. As for `O=C(CCn1ccc2ccc(N3Cc4cccc(Cl)c4C3=O)cc21)N1CCN(c2ccncc2)CC1` [G_CC-63, 7-Chloro-2-[1-[3-oxo-3-(4-pyridin-4-yl-piperazin-1-yl)-propyl]-1H-indol-6-yl]-2,3-dihydro-isoindol-1-one], the inhibition at 10 µM was 100%.

As to `COc1cc(C)c(S(=O)(=O)Nc2ccc3ccn(CC(=O)NCCN4CCC(c5cccs5)(N(C)C)CC4)c3c2)c(C)c1` [G_CC-30, N-[2-(4-Dimethylamino-4-thiophen-2-yl-piperidin-1-yl)-ethyl]-2-[6-[[(4-methoxy-2,6-dimethyl-phenyl)sulfonyl]amino]-1H-indol-1-yl]-acetamide], the inhibition at 10 µM was 53%. For `COc1cc(C)c(S(=O)(=O)Nc2cccc3ccn(CCC(=O)N(C)CCCN4CCC(c5cccs5)(N(C)C)CC4)c23)c(C)c1` [G_CC-46, N-[3-(4-Dimethylamino-4-thiophen-2-yl-piperidin-1-yl)-propyl]-3-[7-[[(4-methoxy-2,6-dimethyl-phenyl)sulfonyl]amino]-1H-indol-1-yl]-N-methyl-propionamide], the inhibition at 10 µM stood at 94%. As for `COc1cc(C)c(S(=O)(=O)Nc2ccc3ccn(CCC(=O)NCCC4CCN(c5ccncc5)CC4)c3c2)c(C)c1` [G_CC-23, 3-[6-[[(4-Methoxy-2,6-dimethyl-phenyl)sulfonyl]amino]-1H-indol-1-yl]-N-[2-(1-pyridin-4-yl-piperidin-4-yl)-ethyl]-propionamide], the inhibition at 10 µM was 63%. The value for `CN(CCCN1CCN(c2ccncc2)CC1)C(=O)Cn1ccc2ccc(N3Cc4cccc(Cl)c4C3=O)cc21` [G_CC-138, 2-[6-(4-Chloro-3-oxo-1,2-dihydro-isoindol-2-yl)-1H-indol-1-yl]-N-methyl-N-[3-(4-pyridin-4-yl-piperazin-1-yl)-propyl]-acetamide] was 52%.
